From US20100304967A1, “METHOD OF PROTECTING RICE CROPS” (SYNGENTA CROP PROTECTION, INC., priority 2007, published 2010)

Assays:
[1] = tested on: wild rice (Oryza sativa), Echinochloa crus-galli and Leptochloa chinensis; assay: Example 1: damage to undesirable grasses after clodinafop application; format: in vivo; details: clodinafop 60 g/ha
Method: (§1) 500 g of rice seed material are soaked in water in a plastic dish for 24 hours. After the water has been poured off, the seed material is allowed to dry in air for 1 to 2 hours; 0.025 or 0.25 g of safener of formula (I) or (II) is then added and vigorous shaking is carried out. Sowing is performed 24 hours later.
(§2) 5 days after sowing, the herbicide clodinafop in the form of an EC 100 is applied at a rate of application of 60 g/ha. 5, 10 and 15 days afterwards, the damage to the rice plants that have emerged and to the weeds is determined.

rice plants = assay: Example 1: damage to directly sown rice from safener-dressed seed after clodinafop application; format: in vivo, Oryza sativa; details: for Damage to rice (%) after number of days 5: 5 days after application; for Damage to rice (%) after number of days 10: 10 days after application; for Damage to rice (%) after number of days 15: 15 days after application
Method: as §1, §2

cultivated rice = assay: Example 2: damage to cultivated rice with or without safener seed dressing after clodinafop application; format: in vivo, Oryza sativa; details: for Damage to rice (%) after number of days 5: 5 days; for Damage to rice (%) after number of days 10: 10 days; for Damage to rice (%) after number of days 15: 15 days
Method: as §1
as §2, with “60 or 120” for “60”, “determined. For comparison, untreated cultivated rice is tested under the same conditions as an indicator of the behaviour of wild rice.” for “determined.”

[2] = no safener, clodinafop EC 100 60 g/ha applied 5 days after sowing
[3] = cultivated rice without safener (indicator for wild rice), clodinafop 60 g/ha
[4] = cultivated rice without safener (indicator for wild rice), clodinafop 120 g/ha
[5] = rice seed dressed with safener 0.025 g per 500 g
[6] = rice seed dressed with safener 0.25 g per 500 g
[7] = safener 0.025 g per 500 g of seed material, clodinafop 60 g/ha
[8] = safener 0.25 g per 500 g of seed material, clodinafop 60 g/ha
[9] = cultivated rice with 0.025 g of safener (per 500 g seed), clodinafop 60 g/ha
[10] = cultivated rice with 0.025 g of safener (per 500 g seed), clodinafop 120 g/ha
[11] = cultivated rice with 0.25 g of safener (per 500 g seed), clodinafop 60 g/ha
[12] = cultivated rice with 0.25 g of safener (per 500 g seed), clodinafop 120 g/ha

SMILES: C[C@@H](Oc1ccc(Oc2ncc(Cl)cc2F)cc1)C(=O)O [Clodinafop, clodinafop, reference compound]
- Damage to undesirable grasses* (%) ([1]; no safener): 93%
- Damage to rice (%) after number of days 5 (rice plants; [2]): 68%
- Damage to rice (%) after number of days 10 (rice plants; [2]): 65%
- Damage to rice (%) after number of days 15 (rice plants; [2]): 30%
- Damage to rice (%) after number of days 5 (cultivated rice; [3]): 40%
- Damage to rice (%) after number of days 10 (cultivated rice; [3]): 90%
- Damage to rice (%) after number of days 15 (cultivated rice; [3]): 65%
- Damage to rice (%) after number of days 5 (cultivated rice; [4]): 78%
- Damage to rice (%) after number of days 10 (cultivated rice; [4]): 98%
- Damage to rice (%) after number of days 15 (cultivated rice; [4]): 100%

SMILES: COC(=O)c1sccc1NS(=O)(=O)c1nc2nc(C)cc(C)n2n1 [Formula II]
- Damage to undesirable grasses* (%) [1, 5]: 98%
- Damage to undesirable grasses* (%) [1, 6]: 99%
- Damage to rice (%) after number of days 5 (rice plants; [7]): 21%
- Damage to rice (%) after number of days 10 (rice plants; [7]): 9%
- Damage to rice (%) after number of days 15 (rice plants; [7]): 0%
- Damage to rice (%) after number of days 5 (rice plants; [8]): 5%
- Damage to rice (%) after number of days 10 (rice plants; [8]): 3%
- Damage to rice (%) after number of days 15 (rice plants; [8]): 0%
- Damage to rice (%) after number of days 5 (cultivated rice; [9]): 18%
- Damage to rice (%) after number of days 10 (cultivated rice; [9]): 8%
- Damage to rice (%) after number of days 15 (cultivated rice; [9]): 0%
- Damage to rice (%) after number of days 5 (cultivated rice; [10]): 23%
- Damage to rice (%) after number of days 10 (cultivated rice; [10]): 15%
- Damage to rice (%) after number of days 15 (cultivated rice; [10]): 8%
- Damage to rice (%) after number of days 5 (cultivated rice; [11]): 13%
- Damage to rice (%) after number of days 10 (cultivated rice; [11]): 9%
- Damage to rice (%) after number of days 15 (cultivated rice; [11]): 0%
- Damage to rice (%) after number of days 5 (cultivated rice; [12]): 25%
- Damage to rice (%) after number of days 10 (cultivated rice; [12]): 16%
- Damage to rice (%) after number of days 15 (cultivated rice; [12]): 5%

SMILES: CNC(=O)Nc1ccc(S(=O)(=O)NC(=O)c2ccccc2OC)cc1 [Formula I]
- Damage to undesirable grasses* (%) [1, 5]: 100%
- Damage to undesirable grasses* (%) [1, 6]: 98%
- Damage to rice (%) after number of days 5 (rice plants; [7]): 5%
- Damage to rice (%) after number of days 10 (rice plants; [7]): 0%
- Damage to rice (%) after number of days 15 (rice plants; [7]): 0%
- Damage to rice (%) after number of days 5 (rice plants; [8]): 4%
- Damage to rice (%) after number of days 10 (rice plants; [8]): 3%
- Damage to rice (%) after number of days 15 (rice plants; [8]): 0%
